In PubChem BioAssay (NCI):
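Cells were grown in 96-well plates and exposed to each compound for 48 hours at five concentrations; endpoints were interpolated linearly between bracketing concentrations, or set to the highest concentration if not reached. TGI is the concentration that stops growth completely.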

How the values were obtained:
Assay in all cases: growth of human tumour cells (NCI), 48 h
A549 NSCLC = test system: A549 NSCLC
ACHN renal = test system: ACHN renal
CCRF-CEM leukemia = test system: CCRF-CEM leukemia
HOP-92 NSCLC = test system: HOP-92 NSCLC
MDA-N = test system: MDA-N

| SMILES | TGI (A549 NSCLC) [µM] | TGI (ACHN renal) [µM] | TGI (CCRF-CEM leukemia) [µM] | TGI (HOP-92 NSCLC) [µM] | TGI (MDA-N) [µM] |
| --- | --- | --- | --- | --- | --- |
| CC(C)NC(NC(C)C)=C(S(=O)(=O)C(F)(F)C(F)(F)C(F)(F)C(F)(F)F)S(=O)(=O)C(F)(F)C(F)(F)C(F)(F)C(F)(F)F | > 100 | > 100 | > 100 | > 100 | > 100 |
| COC(=O)/C=C(/C=C1/C(C#N)=C(N)N(c2ccc(Cl)cc2)C1(C)/C(=C/C(=O)OC)C(=O)OC)C(=O)OC (stereo not drawn) |  | > 100 | > 100 | 88.6 | > 100 |
| O=C1CCC2(c3ccccc3)Nc3ccncc3N12 (stereo not drawn) | > 10 | > 10 | > 10 | > 10 | > 10 |
| COc1ccc2c(c1)-c1nc(=S)n(CCCN(C)C)c3ccc([N+](=O)[O-])c(c13)N2 | 14.8 | 14.4 | 1.41 | 20.7 | 2.2 |
| CCOCc1c(C)cc(C)c(C2C(C(=O)c3ccccc3)N3c4ccccc4C=CC3C2(C#N)C(=O)OCC)c1C (stereo not drawn) |  | > 100 | > 100 |  | 87 |
| Cc1ccc(S(=O)(=O)c2ccsc2NC(=O)C(F)(F)F)cc1 | > 100 | > 100 |  | > 100 | 98.9 |
| COc1cc2ncnc(Nc3cccc(Cl)c3)c2cc1OC | 49 | 54.5 | 19.6 | 38.9 | 42.6 |
| Nc1nc(I)nc2c1ncn2C1OC(COS(N)(=O)=O)C(O)C1O (stereo not drawn) | 0.201 | 0.211 | 0.0268 | 0.0464 | 0.0135 |
| Cc1c(C)c(C)n(C2OC(CO)C(O)C(O)C2O)c(=S)c1C#N (stereo not drawn) | > 100 | > 100 | > 100 | > 100 | > 100 |
| CO/C(N)=C(\C#N)N=Cc1ccco1 | > 100 | > 100 | > 100 | > 100 | > 100 |
| N#CC12CNCC1CN=N2 (stereo not drawn) | > 100 | > 100 | > 100 | > 100 | > 100 |
| CCC(C)(C)C1CCC2c3c([nH]c4ccccc34)C3C(=O)N(c4ccc(OC)cc4)C(=O)C3C2C1 (stereo not drawn) | 35.5 | 58.6 |  |  | 68.6 |
| CCCCCCCCCCCCN(CC(O)C(O)C(OC1OC(CO)C(O)C(O)C1O)C(O)CO)C(=O)CCCCCCCCCCC (stereo not drawn) | 55.3 | 31 | 65.1 | 39.5 | 38.2 |
| COc1cc(/C=C2/SC(c3ccccc3)N(c3ccccc3Cl)C2=O)cc(OC)c1OC (stereo not drawn) | > 100 | > 100 | 43.4 | > 100 | 69.7 |
| CC1(C)C2CCC(CN)(C2)C1N (stereo not drawn) | > 100 | > 100 | > 100 | > 100 | > 100 |
| CCC/C=C/c1cc2c(cc1O)CC[C@@H]1[C@@H]2CC[C@]2(C)[C@@H](O)CC[C@@H]12 | 36.9 | 34.2 | 32.8 | 40.8 | 28.3 |
| COc1ccc(/C=C2\CCC(C)C3C2=NN(c2ccccc2)C3c2ccc(OC)c(OC)c2)cc1OC (stereo not drawn) |  | 14.6 | 10.2 |  | 29.2 |
| CCOC(=O)C1(Cc2ccccc2)C=CN(C(=O)c2ccccc2)C=C1 | > 100 | > 100 | 61.5 | 80 | 65.2 |
| COc1ccc(C(=O)c2sc(N(C)C)nc2-c2ccccc2)cc1 | > 100 | > 100 | 65.2 | > 100 | 53.8 |
| Nc1nc(Cl)c(CO)c(NCC2(CO)CC(CCc3ccccc3)C2)n1 (stereo not drawn) | 34.5 | > 100 | 69.5 | 73.1 | > 100 |
| O=C(O)c1ccccc1/C=N/NC1=NCCN1 | > 100 | > 100 | > 100 | 91.9 | > 100 |
| CC(C)(C)C(=O)OCOP(=O)(OCOC(=O)C(C)(C)C)OCC1OC(n2ccc(=O)[nH]c2=O)C(N=[N+]=[N-])C1O (stereo not drawn) | 14 | 17.8 | 13.3 | 5 | 15.8 |
| CCOC(=O)CCCNC(=O)CCCCC(=O)N(C)C | > 100 | > 100 | > 100 | > 100 | > 100 |

| SMILES | TGI (A549 NSCLC) [µM] | TGI (ACHN renal) [µM] | TGI (CCRF-CEM leukemia) [µM] | TGI (HOP-92 NSCLC) [µM] | TGI (MDA-N) [µM] |
| --- | --- | --- | --- | --- | --- |
| COC(=O)c1cc(C)ccc1C1CN=NC12Cc1ccc(C)cc1C2=O (stereo not drawn) | > 100 | > 100 | > 100 | 66.5 | > 100 |
| O=c1cc(N2CCNCC2)nc2ccccn12 | > 100 | > 100 | > 100 | > 100 | > 100 |
| COC(=O)CC(c1cn(S(=O)(=O)c2ccc(C)cc2)c2ccccc12)C1C[C@@H](C(=O)OC)N(C(=O)OC(C)(C)C)C1=O (stereo partly drawn) | > 100 | > 100 | 76.9 |  | > 100 |
| Cc1cc2cc3c(cc2c(-c2ccc([N+](=O)[O-])cc2)n1)OCO3 | > 100 | > 100 | > 100 | 56.8 | > 100 |
| O=S(=O)(SC1=NCCN1)c1ccc2ccccc2c1 | 86.3 | > 100 | 68 | > 100 | 43.9 |
| CCOC(=O)c1c(NC(=O)c2cccs2)sc2c1CCC2 | > 100 | > 100 | > 100 |  | > 100 |
| Cc1cc(S(=O)(=O)Nc2nc(N)n(-c3ccccn3)n2)c(S)cc1Cl | > 100 | > 100 | > 100 |  | > 100 |
| O=C1c2[nH]c3ccc(Br)cc3c2CCN1Cc1ccc(Cl)cc1 | 26.9 | 22.7 | > 100 | 33.4 | 30.7 |
| CC(C)(C)OC(=O)CN1C(=O)CC1CC(=O)c1ccccc1 (stereo not drawn) | > 100 | 41.7 |  | > 100 | 42.2 |
| O=c1[nH]nc(-c2ccccc2)n1/N=C/c1ccc([N+](=O)[O-])cc1 | > 100 | > 100 | > 100 | 32 | > 100 |
| O=c1oc2ccccc2cc1-c1csc(Nc2ccc(F)cc2)n1 | 3.23 | 26.3 | 16.3 | 24.4 | 16.5 |
| COC1(C)CP(=O)(OC(C)C)CC(C)=C1Cl (stereo not drawn) | > 100 | > 100 | 15.7 | 25.6 | 47.7 |
| CCOC(=O)N(NC(=O)NC(C)C)c1ccccc1 | > 100 | > 100 | > 100 | > 100 | > 100 |
| NCCCCC(NC(=O)C(N)Cc1ccc(O)cn1)C(=O)O (stereo not drawn) | > 100 | > 100 | > 100 | > 100 | > 100 |
| CC(C)(C)/C(=N\Nc1nc2ccccc2[nH]1)c1ccccn1 | > 100 | > 100 | > 100 | > 100 | > 100 |
| c1ccc(-c2cn3c(nc4ccccc43)c(-c3ccccc3)n2)cc1 | > 100 | > 100 | > 100 | 62 | > 31.6 |
| O=C1N=C(SC2OC(CO)C(O)C(O)C2O)S/C1=C\c1ccccc1 (stereo not drawn) | > 100 | > 100 | > 100 |  | > 100 |
| O=[N+]([O-])c1ccc2c(c1)S(=O)(=O)N1Cc3ccccc3CCN21 | > 100 | > 100 | > 100 | > 100 |  |
| OC1(c2ccc(Cl)cc2)C(N2CCCC2)c2ccccc2C2=NCCN21 (stereo not drawn) | > 100 | > 100 | > 100 | 62.9 | 51.4 |
| COc1nc(N=P(c2ccccc2)(c2ccccc2)c2ccccc2)cc(=O)[nH]1 | > 100 | > 100 | > 100 | > 100 | > 100 |
| CCOC(=O)c1cc2c([nH]1)c(O)cc1c2ccn1Cc1ccccc1 | 30.3 |  | 39.9 | 27.7 | 29.5 |
| N#CC1C(=O)N(c2ccccc2)NC12OC(=O)c1ccncc12 (stereo not drawn) | > 20 | > 20 | > 20 | > 20 | > 20 |
| Cc1cc2c(cc1C(=O)CCC(=O)O)CC1(C2)Cc2cc(C)c(C(=O)CCC(=O)O)cc2C1 | > 100 | > 100 | > 100 | > 100 | > 100 |

| SMILES | TGI (A549 NSCLC) [µM] | TGI (ACHN renal) [µM] | TGI (CCRF-CEM leukemia) [µM] | TGI (HOP-92 NSCLC) [µM] | TGI (MDA-N) [µM] |
| --- | --- | --- | --- | --- | --- |
| COC(=O)c1cc2c(cc1CC1Cc3cc4c(cc3C1=O)CCC4)CCC2 (stereo not drawn) | > 100 | > 100 | > 100 |  | > 100 |
| O=c1[nH]c(=O)n(CCOc2ccccc2)cc1Nc1ccccc1 | > 100 | > 100 | > 100 | > 100 | > 100 |
| O=C(O)C1CCCN(CCc2c[nH]c3ccccc23)C1 (stereo not drawn) | > 100 | > 100 | > 100 | > 100 | > 100 |
| C/C(Cl)=N/OC(=O)Nc1ccc(S(N)(=O)=O)c(C)c1 | 38.3 | 5.37 | 3.99 | 4.7 | 24.4 |
| CC(=O)N(C(C)=O)n1c(Cc2ccc(Cl)cc2)n[nH]c1=O | > 100 | > 100 | > 100 | > 100 | > 100 |
| O=C1N[C@H]2c3c(Cl)sc(Cl)c3[C@@H](O)[C@H]2O1 | > 100 | > 100 | > 100 |  | > 100 |
| COC(=O)C1=C(O)C(C(=O)OC)[C@]2(O)[C@H](C(=O)OC)[C@H]1C[C@@H](c1ccc(OC)c(OC)c1)[C@H]2C(=O)OC (stereo partly drawn) | 54.4 | > 100 | > 100 | > 100 | > 100 |
| Cc1ccc([N+](=O)[O-])cc1S(=O)(=O)Nc1ccc(C2=NN(c3ccc([N+](=O)[O-])cc3[N+](=O)[O-])C(c3cccs3)C2)cc1 (stereo not drawn) | > 100 | 81.6 | > 100 | 84.6 | 31.4 |
| CC(=O)Oc1cc(Cl)c(C)c2c1[C@H]1CC[C@]3(C)[C@@H](OC(C)=O)CC[C@H]3[C@@H]1CC2 | > 100 | > 100 | > 100 | > 100 | > 100 |
| C=C1[C@H](OC(C)=O)[C@H]2[C@@H](OC(C)=O)[C@@H](C)C[C@]2(C)C(=O)[C@H](C)/C=C/C(C)(C)C(=O)[C@H](OCC(C)C)[C@H]1OC(C)=O |  | > 25 | > 25 | > 25 | > 25 |
| O=c1[nH]nc(-c2ccccc2)n1-c1ccncc1 | > 100 | > 100 | > 100 | > 100 | > 100 |
| O=c1c2ccccc2[nH]c2c(Cl)cc(Cl)c(NC3CCCCC3)c12 | > 100 | 37.7 |  |  | 79.1 |
| O=C(O)COCC(=O)N(CCOCCN(Cc1ccccc1)C(=O)COCC(=O)O)Cc1ccccc1 | > 100 | > 100 | > 100 | > 100 | > 100 |
| c1ccc2c(c1)CC1=C(O2)c2ccccc2OC1 | > 100 | > 100 | > 100 | 95 | 45.5 |
| COc1ccccc1NC(=S)Nc1cc(C)cc(C)n1 | > 100 | > 100 | > 100 |  | > 100 |
| COC(=O)C1=C(O)C(C(=O)OC)[C@]2(O)[C@H](C(=O)OC)[C@H]1C[C@@H](c1ccc(Cl)cc1)[C@H]2C(=O)OC (stereo partly drawn) | 89.5 | 39.9 | > 100 | 73.6 | 22.5 |
| Cc1cc(C)c2c(O)c(S(=O)(=O)c3ccc(Cl)cc3)c(=O)oc2c1 | > 100 |  | > 100 | > 100 | > 100 |
| c1ccc(-c2nc3ccccc3n3c(CN4CCCCC4)nnc23)cc1 | > 100 | > 100 | > 100 | > 100 | > 100 |
| O=C1CN(C(=O)C2CCCN2C(=O)C2CCCN2)C(=O)CN1 (stereo not drawn) | > 100 | > 100 | > 100 | > 100 | > 100 |
| COc1ccccc1N(CN1C(=O)CCC1C(=O)O)C(C)=O (stereo not drawn) | > 100 | > 100 |  | > 100 | > 100 |
| Oc1c2cc(Cl)cc1COCc1cc(Cl)cc(c1O)COCc1cc(Cl)cc(c1O)COC2 | > 100 | > 100 | 59.5 | 92.2 |  |
| Nc1cccnc1NCC1(CO)CCCC1 | > 100 | > 100 | > 100 |  | > 100 |
| OC1(c2ccccc2)C2CCN(CC2)C1CN1CCOCC1 (stereo not drawn) | > 100 | > 100 | > 100 |  |  |
